Experimental data taken from patent publication US11407740B2 (priority 2018, dated 2022).
In brackets after ≈: the same amount, converted by molar mass.

Test system: K. pneumoniae
Assay: Bacterial susceptibility testing, MIC by broth microdilution (CLSI)
Type: cell-based
Settings: 35° C., 18-24 h
Method: (§1) Minimal inhibitory concentrations (MIC) were determined by the broth microdilution method in accordance with the Clinical and Laboratory Standards Institute (CLSI) guidelines. In brief, organism suspensions were adjusted to a 0.5 McFarland standard to yield a final inoculum between 3×10^3 and 7×10^5 colony-forming units (CFU)/mL. Drug dilutions and inocula were made in sterile, cation adjusted Mueller-Hinton Broth (Beckton Dickinson). An inoculum volume of 100 μL was added to wells containing 100 μL of broth with 2-fold serial dilutions of drug.

Question: Which “K. pneumoniae MIC” value does the source give for O=c1[nH]cnc(CC(CO)c2ccc(C#Cc3ccc(CN4CCNCC4)cc3)cc2)c1O (stereo not shown) [Compound 54] here?
Answer: The value was “B (B: >1 μg/mL to ≤8.0 μg/mL)”.

Question: O=c1[nH]cnc(CC(CO)c2ccc(C#Cc3ccc(CN4CCNCC4)cc3)cc2)c1O (stereo not shown) [Compound 55] was tested. Which “K. pneumoniae MIC” value did it give?
Answer: The value was “D (D: >32 μg/mL)”.

Test system: E. coli
Assay: as above
Settings: Escherichia coli, read-out: E. coli MIC, broth microdilution, 35° C., 18-24 h
Method: as §1

Question: With O=c1[nH]cnc(CC(CO)c2ccc(C#Cc3ccc(CN4CCNCC4)cc3)cc2)c1O (stereo not shown) [Compound 54] as the compound, how does the MIC read?
Answer: Its MIC is 1 to 8 mg/L (≈ 2.25 to 18 µM).

Question: Which MIC does the source give for O=c1[nH]cnc(CC(O)c2ccc(C#Cc3ccc(CN[C@@H]4CCOC4)cc3)cc2)c1O (mixture of isomers) [Compound 271] here?
Answer: The MIC was under 1 mg/L.

Question: With O=C(NCCF)C(Cc1nc[nH]c(=O)c1O)c1ccc(C#Cc2ccc(CN3CCOCC3)cc2)cc1 (stereo not shown) [Compound 19] as the compound, how does the MIC read?
Answer: Its MIC is under 1 mg/L.

Question: Which MIC does the source give for O=c1[nH]cnc(CC(CO)c2ccc(C#Cc3ccc(CN4CC5(COC5)C4)cc3)cc2)c1O (stereo not shown) [Compound 47] here?
Answer: Its MIC is 1 to 8 mg/L (≈ 2.19 to 17.5 µM).

Question: How did the MIC turn out when CO[C@@H]1CCN(Cc2ccc(C#Cc3ccc(C(CNCC(C)Cl)Cc4nc[nH]c(=O)c4O)cc3)cc2)C1 (mixture of isomers) [Compound 125] was run?
Answer: Its MIC is 1 to 8 mg/L.

Question: For C[C@@H](CO)NCC(Cc1nc[nH]c(=O)c1O)c1ccc(C#Cc2ccc(CN[C@H]3CCOC3)cc2)cc1 (mixture of isomers) [Compound 144], which MIC is on record?
Answer: Its MIC is 1 to 8 mg/L.

Question: With N#CC1CN(CC(Cc2nc[nH]c(=O)c2O)c2ccc(C#Cc3ccc(CN4CCOCC4)cc3)cc2)C1 (stereo not shown) [Compound 102] as the compound, how does the MIC read?
Answer: Its MIC is under 1 mg/L.

Question: For O=c1[nH]cnc(CC(CN[C@H]2CCS(=O)(=O)C2)c2ccc(C#Cc3ccc(CN4CCOCC4)cc3)cc2)c1O (single isomer, unassigned) [Compound 188], which MIC is on record?
Answer: The MIC was under 1 mg/L.

Question: With COC1CN(Cc2ccc(C#Cc3ccc([C@@H](CNC4(C)CC4)Cc4nc[nH]c(=O)c4O)cc3)cc2)C1 (single isomer, unassigned) [Compound 251] as the compound, how does the MIC read?
Answer: The MIC was under 1 mg/L.

Question: How did the MIC turn out when C[C@@H](CC#N)NCC(Cc1ncnc(O)c1O)c1ccc(C#Cc2ccc(CN3CCOCC3)cc2)cc1 (single isomer, unassigned) [Compound 99] was run?
Answer: The MIC was under 1 mg/L.

Question: With CC(=O)N1CC[C@H](NCC(Cc2nc[nH]c(=O)c2O)c2ccc(C#Cc3ccc(CN4CCOCC4)cc3)cc2)C1 (single isomer, unassigned) [Compound 182] as the compound, how does the MIC read?
Answer: The MIC was 1 to 8 mg/L (≈ 1.8 to 14.4 µM).

Question: COC(=O)C(Cc1nc[nH]c(=O)c1O)c1ccc(C#Cc2ccc(CNC3CCOC3)cc2)cc1 (stereo not shown) [Compound 27] was tested. Which MIC did it give?
Answer: Its MIC is 1 to 8 mg/L (≈ 2.11 to 16.9 µM).

Question: For COC1CCN(Cc2ccc(C#Cc3ccc(C(N)Cc4nc[nH]c(=O)c4O)cc3)cc2)CC1 (stereo not shown) [Compound 174], which MIC is on record?
Answer: Its MIC is under 1 mg/L.

Question: With NC(Cc1nc[nH]c(=O)c1O)c1ccc(C#Cc2ccc(CN[C@@H]3CCOC3)cc2)cc1 (mixture of isomers) [Compound 173] as the compound, how does the MIC read?
Answer: The MIC was under 1 mg/L.

Question: With C[C@H](CO)NCC(Cc1nc[nH]c(=O)c1O)c1ccc(C#Cc2ccc(CN3CCOCC3)cc2)cc1 (single isomer, unassigned) [Compound 170] as the compound, how does the MIC read?
Answer: Its MIC is 1 to 8 mg/L (≈ 1.99 to 15.9 µM).

Question: For CC(C)(O)C(Cc1nc[nH]c(=O)c1O)c1ccc(C#Cc2ccc(CN3CCOCC3)cc2)cc1 (stereo not shown) [Compound 1], which MIC is on record?
Answer: Its MIC is 1 to 8 mg/L (≈ 2.11 to 16.9 µM).

Question: How did the MIC turn out when CS(=O)(=O)NC[C@@H](Cc1nc[nH]c(=O)c1O)c1ccc(C#Cc2ccc(CN3CCOCC3)cc2)cc1 (single isomer, unassigned) [Compound 304] was run?
Answer: Its MIC is under 1 mg/L.

Question: For NC(Cc1nc[nH]c(=O)c1O)c1ccc(-c2ccc(CCN3CCOCC3)cc2)cc1 (stereo not shown) [Compound 214], which MIC is on record?
Answer: The MIC was 8 to 32 mg/L (≈ 19 to 76.1 µM).

Question: With O=c1[nH]cnc(CC(CO)c2ccc(C#Cc3ccc(CN[C@H]4CCS(=O)(=O)C4)cc3)cc2)c1O (single isomer, unassigned) [Compound 39] as the compound, how does the MIC read?
Answer: The MIC was under 1 mg/L.

Question: With O=c1[nH]cnc(CC(CN[C@@H]2CCOC2)c2ccc(C#Cc3ccc(CN4CCOCC4)cc3)cc2)c1O (single isomer, unassigned) [Compound 162] as the compound, how does the MIC read?
Answer: The MIC was 1 to 8 mg/L (≈ 1.94 to 15.5 µM).

Question: Which MIC does the source give for N=[S@]1(=O)CC[C@@H](NCc2ccc(C#Cc3ccc(C(CO)Cc4nc[nH]c(=O)c4O)cc3)cc2)C1 (mixture of isomers) [Compound 150] here?
Answer: Its MIC is 1 to 8 mg/L.

Question: O=C(CO)N[C@@H]1CCN(Cc2ccc(C#Cc3ccc(C(CO)Cc4nc[nH]c(=O)c4O)cc3)cc2)C1 (mixture of isomers) [Compound 257] was tested. Which MIC did it give?
Answer: The MIC was 1 to 8 mg/L.

Question: Which MIC does the source give for O=C(N[C@@H]1CCN(Cc2ccc(C#Cc3ccc(C(CO)Cc4nc[nH]c(=O)c4O)cc3)cc2)C1)C1CC1 (mixture of isomers) [Compound 256] here?
Answer: The MIC was under 1 mg/L.

Question: COC1CN(Cc2ccc(C#Cc3ccc(C(CN[C@@H](C)CF)Cc4nc[nH]c(=O)c4O)c(F)c3)cc2)C1 (single isomer, unassigned) [Compound 238] was tested. Which MIC did it give?
Answer: The MIC was under 1 mg/L.

Question: Which MIC does the source give for O=c1[nH]cnc(CC(NCCCCl)c2ccc(C#Cc3ccc(CN4CCOCC4)cc3)cc2)c1O (stereo not shown) [Compound 172] here?
Answer: Its MIC is under 1 mg/L.

Question: How did the MIC turn out when N=S1(=O)CCC(NCc2ccc(C#Cc3ccc(C(CO)Cc4nc[nH]c(=O)c4O)cc3)cc2)CC1 (stereo not shown) [Compound 149] was run?
Answer: The MIC was 1 to 8 mg/L (≈ 1.97 to 15.8 µM).

Question: How did the MIC turn out when N#CC1CCN(Cc2ccc(C#Cc3ccc([C@@H](CO)Cc4nc[nH]c(=O)c4O)cc3)cc2)C1 (stereo partly shown) [Compound 33] was run?
Answer: The MIC was under 1 mg/L.

Question: Which MIC does the source give for O=c1[nH]cnc(CC(CNCCCF)c2ccc(C#Cc3ccc(CN4CCOCC4)cc3)cc2)c1O (stereo not shown) [Compound 105] here?
Answer: The MIC was under 1 mg/L.

Question: Which MIC does the source give for O=c1[nH]cnc(CC(CO)c2ccc(/C=C/c3ccc(CN[C@H]4CCOC4)cc3)cc2)c1O (mixture of isomers) [Compound 198] here?
Answer: Its MIC is 8 to 32 mg/L.

Question: Which MIC does the source give for C[C@@H](CF)NCC(Cc1nc[nH]c(=O)c1O)c1ccc(C#Cc2ccc(CN3CC(CC#N)C3)cc2)cc1 (mixture of isomers) [Compound 95] here?
Answer: Its MIC is under 1 mg/L.

Question: Which MIC does the source give for O=c1[nH]cnc(CC(CNCC(F)F)c2ccc(C#Cc3ccc(CN4CCOCC4)cc3)cc2)c1O (stereo not shown) [Compound 115] here?
Answer: Its MIC is under 1 mg/L.

Question: With C[C@@H](CF)NCC(Cc1nc[nH]c(=O)c1O)c1ccc(C#Cc2ccc(CN3CC[C@@H](C#N)C3)cc2)cc1 (mixture of isomers) [Compound 91] as the compound, how does the MIC read?
Answer: The MIC was under 1 mg/L.

Question: Which MIC does the source give for O=c1[nH]cnc(C[C@H](CO)c2ccc(C#Cc3ccc(C4(O)CCNCC4)cc3)cc2)c1O (single isomer, unassigned) [Compound 266] here?
Answer: The MIC was 1 to 8 mg/L (≈ 2.24 to 18 µM).

Question: Which MIC does the source give for O=c1[nH]cnc(C[C@H](CO)c2ccc(C#Cc3ccc(CN4CC5(CCO5)C4)cc3)cc2F)c1O (single isomer, unassigned) [Compound 273] here?
Answer: Its MIC is under 1 mg/L.

Question: Which MIC does the source give for O=c1[nH]cnc(C[C@@H](CN2CC(O)C2)c2ccc(C#Cc3ccc(CN4CCOCC4)cc3)cc2)c1O (single isomer, unassigned) [Compound 229] here?
Answer: Its MIC is 1 to 8 mg/L (≈ 2 to 16 µM).

Same assay, conditions: broth microdilution, 35° C., 18-24 h

Question: How did the “E. coli MIC” value turn out when O=c1[nH]cnc(CC(CN[C@H]2C[C@H](F)C2)c2ccc(C#Cc3ccc(CN4CCOCC4)cc3)cc2)c1O (stereo partly shown) [Compound 80] was run?
Answer: Its value is “A (A: ≤1 μg/mL)”.

Question: Which “E. coli MIC” value does the source give for COC1CN(Cc2ccc(C#Cc3ccc(C(Cc4nc[nH]c(=O)c4O)CN4CC(OC)C4)cc3)cc2)C1 (stereo not shown) [Compound 176] here?
Answer: The value was “A (A: ≤1 μg/mL)”.

Question: With O=c1[nH]cnc(CC(CNC2CC(F)(F)C2)c2ccc(C#Cc3ccc(CN4CCOCC4)cc3)cc2)c1O (stereo not shown) [Compound 113] as the compound, how does the “E. coli MIC” value read?
Answer: The value was “B (B: >1 μg/mL to ≤8.0 μg/mL)”.

Question: Which “E. coli MIC” value does the source give for C[C@@H](CO)NCC(Cc1nc[nH]c(=O)c1O)c1ccc(C#Cc2ccc(CN3CCOCC3)cc2)cc1 (single isomer, unassigned) [Compound 169] here?
Answer: The value was “A (A: ≤1 μg/mL)”.

Question: O=c1[nH]cnc(CC(CO)c2ccc(C#Cc3ccc(CN4CCNCC4)cc3)cc2)c1O (stereo not shown) [Compound 55] was tested. Which “E. coli MIC” value did it give?
Answer: The value was “B (B: >1 μg/mL to ≤8.0 μg/mL)”.

Question: O=c1[nH]cnc(CC(CNC2CC(F)(F)C2)c2ccc(C#Cc3ccc(CN4CCOCC4)cc3)cc2)c1O (stereo not shown) [Compound 114] was tested. Which “E. coli MIC” value did it give?
Answer: Its value is “B (B: >1 μg/mL to ≤8.0 μg/mL)”.

Question: O=C(CO)N1CC[C@@H](NCc2ccc(C#Cc3ccc(C(CO)Cc4nc[nH]c(=O)c4O)cc3)cc2)C1 (single isomer, unassigned) [Compound 46] was tested. Which “E. coli MIC” value did it give?
Answer: Its value is “A (A: ≤1 μg/mL)”.

Question: How did the “E. coli MIC” value turn out when CO[C@@H]1CCN(Cc2ccc(C#Cc3ccc(C(CNCC(C)F)Cc4nc[nH]c(=O)c4O)cc3)cc2)C1 (mixture of isomers) [Compound 135] was run?
Answer: The value was “B (B: >1 μg/mL to ≤8.0 μg/mL)”.

Question: For O=C(CO)NC1CCN(Cc2ccc(C#Cc3ccc(C(CO)Cc4nc[nH]c(=O)c4O)cc3)cc2)CC1 (stereo not shown) [Compound 242], which “E. coli MIC” value is on record?
Answer: Its value is “A (A: ≤1 μg/mL)”.
